Assay results as given in US12240855B2, “Pyrrolopyrazole derivative” (DAIICHI SANKYO COMPANY, LIMITED, priority 2019, dated 2025).

Key:
HCT116 cells = assay: cells; conditions: Homo sapiens, HCT-116, 72 h, read-out: Test Example 3 HCT116 GI50
Procedure: McCoy's 5A medium containing 10% bovine serum was used as the culture medium for each cell. […] They were added to each well of 384-well plates at 40 nL/well using an Echo555 (Labcyte Inc.). […] On the day of compound addition (day 0) and 3 days after compound addition (day 3), 10 μL/well of CellTiter-Glo® 2.0 Assay (Promega, #G9242), which is a reagent for ATP measurement, was added to each well, and the amount of luminescence in each well was measured with EnVision. From the amount of luminescence on the day of compound addition (C0) and the amount of luminescence of the compound non-addition group (C3) and compound addition group (T3) after 3 days of culture, cell viability was calculated based on the following formula. Cell viability (%)=[(T3−C0)/(C3−C0)]×100

[1] = system: PTDSS2-KO HCT116 cell-subcutaneous transplanted model; assay: Test Example 4: Antitumor activity on PTDSS2-KO HCT116 cell-subcutaneous transplanted model; assay type: in vivo, female BALB/c-nu/nu mice; conditions: oral
From the text: HCT116 cell-subcutaneous transplanted model PTDSS2-KO HCT116 cells were transplanted to a right subcutaneous axillary portion of female BALB/c-nu/nu mice at a proportion of 1×10^7 cells/head, and when the tumor volume reached 100 to 300 mm^3 (estimated tumor volume (major axis×minor axis×minor axis/2)), mice were divided into groups of 6 or 5 mice each such that there was no difference between groups. The female BALB/c-nu/nu mice were purchased from CHARLES RIVER LABORATORIES JAPAN, INC. The compounds of Examples 58, 57, 53, 30, 42, 32, 34, 33, and 31 were orally administered from the day of grouping in the dosing schedule shown in Table 12 (twice daily, 11 successive days (BID×11), or once daily, 13 successive days (QD×13)). The tumor volume was measured until the next day of completion of the administration (test end date). 0.5% methylcellulose (MC) was administered to the vehicle control group as the vehicle.
TGI %=(1−TVt/TVc)×100 • TGI: Tumor growth suppression rate • TVt: Group mean tumor volume of compound administration group on test end date • TVc: Group mean tumor volume of vehicle control group on test end date

[2] = 10 mg/kg, QD × 13, test end date
[3] = 20 mg/kg, QD × 13, test end date
[4] = 40 mg/kg, QD × 13, test end date

O=C1c2[nH]nc(-c3cccc4[nH]c(=O)oc34)c2C(c2ccc(Oc3ccc(Cl)cc3)cc2)N1CC1CC1 (single isomer, unassigned) [Example 2, 7-{4-[4-(4-Chlorophenoxy)phenyl]-5-(cyclopropylmethyl)-6-oxo-1,4,5,6-tetrahydropyrrolo[3,4-c]pyrazol-3-yl}-1,3-benzoxazol-2(3H)-one (enantiomer)]
GI50 (HCT116 cells): 10 µM

Cc1nc(C2c3c(-c4cccc5[nH]c(=O)oc45)n[nH]c3C(=O)N2CC(C)(F)F)ccc1F (single isomer, unassigned) [Example 23, 7-[5-(2,2-Difluoropropyl)-4-(5-fluoro-6-methylpyridin-2-yl)-6-oxo-1,4,5,6-tetrahydropyrrolo[3,4-c]pyrazol-3-yl]-1,3-benzoxazol-2(3H)-one (enantiomer)]
GI50 (HCT116 cells): > 25 µM

CC(F)(F)CN1C(=O)c2[nH]nc(-c3cccc4[nH]c(=O)oc34)c2C1c1cnc(C(F)(F)F)s1 (single isomer, unassigned) [Example 24, 7-{5-(2,2-Difluoropropyl)-6-oxo-4-[2-(trifluoromethyl)-1,3-thiazol-5-yl]-1,4,5,6-tetrahydropyrrolo[3,4-c]pyrazol-3-yl}-1,3-benzoxazol-2(3H)-one (enantiomer)]
GI50 (HCT116 cells): > 25 µM

CC(F)(F)CN1C(=O)c2[nH]nc(-c3cccc4[nH]c(=O)oc34)c2C1c1ccc(Oc2cc(C(F)(F)F)cc(C(F)(F)F)c2)cc1F (single isomer, unassigned) [Example 66, 7-[4-{4-[3,5-Bis(trifluoromethyl)phenoxy]-2-fluorophenyl}-5-(2,2-difluoropropyl)-6-oxo-1,4,5,6-tetrahydropyrrolo[3,4-c]pyrazol-3-yl]-1,3-benzoxazol-2(3H)-one (enantiomer)]
GI50 (HCT116 cells): > 25 µM

CC(F)(F)CN1C(=O)c2[nH]nc(-c3cccc4[nH]c(=O)oc34)c2C1c1ccc(CN2CCC(F)(F)CC2)cc1 (single isomer, unassigned) [Example 83, 7-[4-{4-[(4,4-Difluoropiperidin-1-yl)methyl]phenyl}-5-(2,2-difluoropropyl)-6-oxo-1,4,5,6-tetrahydropyrrolo[3,4-c]pyrazol-3-yl]-1,3-benzoxazol-2(3H)-one (enantiomer)]
GI50 (HCT116 cells): > 25 µM

CC(F)(F)CN1C(=O)c2[nH]nc(-c3cccc4[nH]c(=O)oc34)c2C1c1ccc(Oc2ccc(OC(F)(F)F)cc2)cc1 (single isomer, unassigned; (-)) [Example 30, (−)-7-[5-(2,2-difluoropropyl)-6-oxo-4-{4-[4-(trifluoromethoxy)phenoxy]phenyl}-1,4,5,6,-tetrahydropyrrolo[3,4-c]pyrazol-3-yl]-1,3-benzoxazol-2-(3H)-one]
TGI (%) [1, 2]: 26%
TGI (%) [1, 3]: 50%
TGI (%) [1, 4]: 83%

CC(F)(F)CN1C(=O)c2[nH]nc(-c3cccc4[nH]c(=O)oc34)c2C1c1ccc(Oc2ccc(OC(F)(F)F)c(Cl)c2)cc1 (single isomer, unassigned; (-)) [Example 31, (−)-7-[4-{4-[3-chloro-4-(trifluoromethoxy)phenoxy]phenyl}-5-(2,2-difluoropropyl)-6-oxo-1,4,5,6,-tetrahydropyrrolo[3,4-c]pyrazol-3-yl]-1,3-benzoxazol-2-(3H)-one]
TGI (%) [1, 4]: 88%

Cc1cc(Oc2ccc(C3c4c(-c5cccc6[nH]c(=O)oc56)n[nH]c4C(=O)N3CC(C)(F)F)cc2)ccc1OC(F)(F)F (single isomer, unassigned; (-)) [Example 32, (−)-7-[5-(2,2-difluoropropyl)-4-{4-[3-methyl-4-(trifluoromethoxy)phenoxy]phenyl}-6-oxo-1,4,5,6-tetrahydropyrrolo[3,4-c]pyrazol-3-yl]-1,3-benzoxazol-2(3H)-one]
TGI (%) [1, 2]: 95%
TGI (%) [1, 3]: 98%
TGI (%) [1, 4]: 98%

CC(F)(F)CN1C(=O)c2[nH]nc(-c3cccc4[nH]c(=O)oc34)c2C1c1ccc(Oc2cc(Cl)cc(OC(F)(F)F)c2)cc1 (single isomer, unassigned; (-)) [Example 34, (−)-7-[4-{4-[3-Chloro-5-(trifluoromethoxy)phenoxy]phenyl}-5-(2,2-difluoropropyl)-6-oxo-1,4,5,6-tetrahydropyrrolo[3,4-c]pyrazol-3-yl]-1,3-benzoxazol-2(3H)-one]
TGI (%) [1, 2]: 63%
TGI (%) [1, 3]: 87%
TGI (%) [1, 4]: 96%

CC(F)(F)CN1C(=O)c2[nH]nc(-c3cccc4[nH]c(=O)oc34)c2C1c1cccc(Oc2ccc(F)cc2)c1 (single isomer, unassigned; (-)) [Example 53, (−)-7-{5-(2,2-Difluoropropyl)-4-[3-(4-fluorophenoxy)phenyl]-6-oxo-1,4,5,6-tetrahydropyrrolo[3,4-c]pyrazol-3-yl}-1,3-benzoxazol-2(3H)-one]
TGI (%) ([1]; 50 mg/kg, BID × 11, test end date): 41%
TGI (%) ([1]; 100 mg/kg, BID × 11, test end date): 83%

O=C1c2[nH]nc(-c3cccc4[nH]c(=O)oc34)c2C(c2cccc(Oc3ccc(Cl)cn3)c2)N1CC1CC1 (stereo not drawn) [Example 3]
GI50 (HCT116 cells): 13 µM

O=C1c2[nH]nc(-c3cccc4[nH]c(=O)oc34)c2C(c2cccc(OC3CCC(F)(F)CC3)c2)N1CC1CC1 (stereo not drawn) [Example 7, 7-[5-(Cyclopropylmethyl)-4-{3-[(4,4-difluorocyclohexyl)oxy]phenyl}-6-oxo-1,4,5,6-tetrahydropyrrolo[3,4-c]pyrazol-3-yl]-1,3-benzoxazol-2(3H)-one]
GI50 (HCT116 cells): 15 µM

CCC(F)(F)CN1C(=O)c2[nH]nc(-c3cccc4[nH]c(=O)oc34)c2C1c1ccc(F)cc1 (stereo not drawn) [Example 11, 7-[5-(2,2-Difluorobutyl)-4-(4-fluorophenyl)-6-oxo-1,4,5,6-tetrahydropyrrolo[3,4-c]pyrazol-3-yl]-1,3-benzoxazol-2(3H)-one]
GI50 (HCT116 cells): > 25 µM

O=C1c2[nH]nc(-c3cccc4[nH]c(=O)oc34)c2C(c2cccc(Oc3ccccc3)c2)N1Cc1ncco1 (stereo not drawn) [Example 12, 7-{5-[(1,3-Oxazol-2-yl)methyl]-6-oxo-4-(3-phenoxyphenyl)-1,4,5,6-tetrahydropyrrolo[3,4-c]pyrazol-3-yl}-1,3-benzoxazol-2(3H)-one]
GI50 (HCT116 cells): > 25 µM

O=C1c2[nH]nc(-c3cc(Oc4ccccc4)cc4[nH]c(=O)oc34)c2C(c2ccc(F)cc2)N1CC(F)(F)F (stereo not drawn) [Example 15, 7-[4-(4-Fluorophenyl)-6-oxo-5-(2,2,2-trifluoroethyl)-1,4,5,6-tetrahydropyrrolo[3,4-c]pyrazol-3-yl]-5-phenoxy-1,3-benzoxazol-2(3H)-one]
GI50 (HCT116 cells): > 25 µM

O=C1c2[nH]nc(-c3ccc(F)c4[nH]c(=O)oc34)c2C(c2cc(Oc3ccccc3)ccc2F)N1CC(F)(F)F (stereo not drawn) [Example 16, 4-Fluoro-7-[4-(2-fluoro-5-phenoxy]phenyl)-6-oxo-5-(2,2,2-trifluoroethyl)-1,4,5,6-tetrahydropyrrolo[3,4-c]pyrazol-3-yl-1,3-benzoxazol-2(3H)-one]
GI50 (HCT116 cells): > 25 µM

CC(F)(F)CN1C(=O)c2[nH]nc(-c3cccc4[nH]c(=O)oc34)c2C1c1ccnc(Oc2ccccc2)c1 (stereo not drawn) [Example 72, 7-[5-(2,2-Difluoropropyl)-6-oxo-4-(2-phenoxypyridin-4-yl)-1,4,5,6-tetrahydropyrrolo[3,4-c]pyrazol-3-yl]-1,3-benzoxazol-2(3H)-one]
GI50 (HCT116 cells): > 25 µM

CC(F)(F)CN1C(=O)c2[nH]nc(-c3cccc4[nH]c(=O)oc34)c2C1c1ccc(Oc2ccc(Cl)cc2)cn1 (stereo not drawn) [Example 77, 7-{4-[5-(4-Chlorophenoxy)pyridin-2-yl]-5-(2,2-difluoropropyl)-6-oxo-1,4,5,6-tetrahydropyrrolo[3,4-c]pyrazol-3-yl]-1,3-benzoxazol-2(3H)-one]
GI50 (HCT116 cells): > 25 µM

CC(F)(F)CN1C(=O)c2[nH]nc(-c3cccc4[nH]c(=O)oc34)c2C1c1cc(Oc2ccc(F)cc2)ccn1 (stereo not drawn) [Example 78, 7-{5-(2,2-Difluoropropyl)-4-[4-(4-fluorophenoxy)pyridin-2-yl]-6-oxo-1,4,5,6-tetrahydropyrrolo[3,4-c]pyrazol-3-yl}-1,3-benzoxazol-2(3H)-one]
GI50 (HCT116 cells): > 25 µM

CC(F)(F)CN1C(=O)c2[nH]nc(-c3cccc4[nH]c(=O)oc34)c2C1c1ccc2c(cnn2-c2ccccc2)c1 (stereo not drawn) [Example 88, 7-[5-(2,2-Difluoropropyl)-6-oxo-4-(1-phenyl-1H-indazol-5-yl)-1,4,5,6-tetrahydropyrrolo[3,4-c]pyrazol-3-yl]-1,3-benzoxazol-2(3H)-one]
GI50 (HCT116 cells): 7.9 µM

CC(F)(F)CN1C(=O)c2[nH]nc(-c3cccc4[nH]c(=O)oc34)c2C1c1ccc(C(F)(F)c2ccccc2)cc1 (stereo not drawn) [Example 91, 7-[4-{4-[Difluoro(phenyl)methyl]phenyl}-5-(2,2-difluoropropyl)-6-oxo-1,4,5,6-tetra hydropyrrolo[3,4-c]pyrazol-3-yl]-1,3-benzoxazol-2(3H)-one]
GI50 (HCT116 cells): 15 µM

CC(F)(F)CN1C(=O)c2[nH]nc(-c3cccc(NC=O)c3)c2C1c1ccc(Cl)cc1 (stereo not drawn) [Example 92, N-{3-[4-(4-Chlorophenyl)-5-(2,2-difluoropropyl)-6-oxo-1,4,5,6-tetrahydropyrrolo[3,4-c]pyrazol-3-yl]phenyl}formamide]
GI50 (HCT116 cells): 11 µM

CC(F)(F)CN1C(=O)c2[nH]nc(-c3cccc(NC(N)=O)c3)c2C1c1ccc(Cl)cc1 (stereo not drawn) [Example 93, N-{3-[4-(4-Chlorophenyl)-5-(2,2-difluoropropyl)-6-oxo-1,4,5,6-tetrahydropyrrolo[3,4-c]pyrazol-3-yl]phenyl}urea]
GI50 (HCT116 cells): > 25 µM
